Measured values taken from patent US9567345B2, “Pharmaceutically active pyrazolo-triazine derivatives” (LEAD DISCOVERY CENTER GMBH, priority 2012, dated 2017).

Columns and labels:
Format in all cases: biochemical
CDK9/Cyclin T1 = CDK9/Cyclin T1 (Homo sapiens, UniProt P50750); assay: CDK9 Enzymatic Activity Assay (Lance Kinase Activity Assay, FRET); settings: Table 5B, class symbols per IC50 [nM] ranges of b581; read-out: CDK9: Selectivity of CDK7 inhibition over CDK9 inhibition
In short: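 CDK9/cyclin T1 phosphorylation of a ULight-MBP peptide was run for 1 h at room temperature in pH 7.5 HEPES buffer with MgCl2, EGTA, DTT and Tween-20. It was followed by 1 h with Eu-anti-phospho-MBP antibody (4 nM) in EDTA detection buffer. TR-FRET loss gave IC50 from 8-point, 1:3 sigmoidal dose-response curves.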

CDK2/CycA = target: T1, CDK2/CycA (Homo sapiens, UniProt P24941); assay: CDK2 Enzymatic Activity Assay (Lance Kinase Activity Assay, FRET); settings: Table 5B, class symbols per IC50 [nM] ranges of b581; read-out: CDK2: Selectivity of CDK7 inhibition over CDK2 inhibition
T1 construct: purchased Proqinase
Description: This protocol describes how the Lance Kinase Activity Assay was performed to determine IC50 values of compounds of general formula (I) against CDK/Cyclin complexes. The principle behind this enzymatic assay is based upon the phosphorylation of the Ulight-Peptide Substrat. It is detected by using a specific EU-labeled anti-phospho peptide antibody.
Binding of an inhibitor to the kinase prevents phosphorylation of the Ulight-MBP Substrat, resulting in a loss of FRET.
CDK2 Enzymatic Activity Assay
The compounds of general formula (I) exemplary summarized in Table 1 were diluted from a 10 mM DMSO stock solution 1:10 in a total volume of 15 μl DMSO. This compound predilution was then serial diluted 1:3 over 8 steps in DMSO and briefly spun down. Each compound solution was now diluted 1:20 in Enzymatic Buffer (HEPES: 50 mM, pH: 7.5; MgCl2: 10 mM; EGTA: 1 mM; DTT: 2 mM; Tween-20: 0.01%), mixed thoroughly and spun down.
For positive controls, 2 μl of DMSO working solution were mixed with 6 μl CDK2/CycA/substrate working solution and 2 μl ATP working solution. Positive and negative controls were calculated from at least 8 different wells. The 384 well plates were mixed in a Teleshaker plate mixer (Beckman Coulter, Brea, Calif., USA) at 2000 rpm for 40 sec, and incubated for 1 h at room temperature before addition of 10 μl LANCE Detection Buffer (EDTA: […]; Eu-Anti-P-MBP: 4 nM) per well. Plates were mixed in a Teleshaker plate mixer (Beckman Coulter, Brea, Calif., USA) at 2000 rpm for 40 sec, followed by incubation with Detection Buffer for 1 h, and reading. […] IC50 values were determined from the sigmoidal dose response curves with the software Quattro Workflow (Quattro GmbH, Munich, Germany).

CDK7/CycH/Mat1 = CDK7/CycH/Mat1 (Homo sapiens, UniProt P50613); assay: CDK7 Enzymatic Activity Assay (Lance Kinase Activity Assay, FRET); settings: CDK7/CycH/Mat1, 25 μM ATP final; class ranges; read-out: CDK7: IC50 [nM] for CDK7 inhibition
In short: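 TR-FRET (LANCE) kinase assay: CDK7/CycH/Mat1 phosphorylates Ulight-MBP substrate for 1 h at room temperature in pH 7.5 HEPES buffer; detection 1 h with Eu-labelled anti-phospho antibody plus EDTA.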

Chain of CDK9/Cyclin T1 (P50750 whole entry): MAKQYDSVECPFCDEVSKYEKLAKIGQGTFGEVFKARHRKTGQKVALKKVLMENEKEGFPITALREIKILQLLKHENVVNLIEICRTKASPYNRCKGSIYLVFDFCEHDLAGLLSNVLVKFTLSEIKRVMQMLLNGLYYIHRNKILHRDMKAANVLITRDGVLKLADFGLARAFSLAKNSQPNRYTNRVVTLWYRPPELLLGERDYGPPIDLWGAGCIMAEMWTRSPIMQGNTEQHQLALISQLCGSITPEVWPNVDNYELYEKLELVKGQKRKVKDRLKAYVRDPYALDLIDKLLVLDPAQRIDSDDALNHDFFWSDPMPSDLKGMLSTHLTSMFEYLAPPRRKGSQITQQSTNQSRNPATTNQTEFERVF
Chain of CDK9/Cyclin T1 (O60563 whole entry partner): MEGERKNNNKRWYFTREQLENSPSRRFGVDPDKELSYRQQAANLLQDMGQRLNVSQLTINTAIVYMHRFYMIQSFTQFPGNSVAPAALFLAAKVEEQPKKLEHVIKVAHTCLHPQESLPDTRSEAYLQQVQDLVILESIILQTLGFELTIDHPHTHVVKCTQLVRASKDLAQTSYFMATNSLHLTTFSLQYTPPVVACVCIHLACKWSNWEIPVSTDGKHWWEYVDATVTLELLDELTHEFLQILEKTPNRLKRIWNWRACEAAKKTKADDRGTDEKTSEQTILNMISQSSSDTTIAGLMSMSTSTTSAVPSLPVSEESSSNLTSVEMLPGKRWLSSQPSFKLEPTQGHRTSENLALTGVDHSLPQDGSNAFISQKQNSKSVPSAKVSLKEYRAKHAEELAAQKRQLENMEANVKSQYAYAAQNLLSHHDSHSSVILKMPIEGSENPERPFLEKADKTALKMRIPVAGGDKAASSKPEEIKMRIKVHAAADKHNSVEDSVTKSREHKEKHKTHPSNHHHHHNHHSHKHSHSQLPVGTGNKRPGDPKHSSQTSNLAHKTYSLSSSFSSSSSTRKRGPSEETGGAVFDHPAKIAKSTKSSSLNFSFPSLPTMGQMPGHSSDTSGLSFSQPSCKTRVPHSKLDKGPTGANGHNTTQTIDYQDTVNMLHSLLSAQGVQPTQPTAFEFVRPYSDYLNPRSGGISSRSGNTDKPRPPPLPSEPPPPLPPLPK
Chain of CDK7/CycH/Mat1 (P50613 whole entry): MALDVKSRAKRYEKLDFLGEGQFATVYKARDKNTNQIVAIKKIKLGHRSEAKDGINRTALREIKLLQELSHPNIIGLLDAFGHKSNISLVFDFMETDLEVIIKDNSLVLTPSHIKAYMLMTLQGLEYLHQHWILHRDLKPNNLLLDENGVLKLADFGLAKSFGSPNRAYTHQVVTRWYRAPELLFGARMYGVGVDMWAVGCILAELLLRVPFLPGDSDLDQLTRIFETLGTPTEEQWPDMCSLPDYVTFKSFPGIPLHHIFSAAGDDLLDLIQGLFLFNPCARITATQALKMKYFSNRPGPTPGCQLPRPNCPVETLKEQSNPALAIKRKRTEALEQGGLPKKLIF

| Compound | IC50 (CDK9/Cyclin T1) [nM] | IC50 (CDK2/CycA) [nM] | IC50 (CDK7/CycH/Mat1) [nM] |
| --- | --- | --- | --- |
| CC(C)c1cnn2c(NCc3cccc4cccnc34)nc(O[C@@H]3CCCNC3)nc12 [(VII-35), (R)-8-isopropyl-2-(piperidin-3-yloxy)-N-(quinolin-8-ylmethyl)pyrazolo[1,5-a][1,3,5]triazin-4-amine] | 50 to 500 | 50 to 500 | < 5 |
| COC(=O)C(CN)Nc1nc(NCc2ccccc2-n2cccn2)n2ncc(C(C)C)c2n1 (stereo not drawn) [(VIII-055), methyl 2-((4-((2-(1H-pyrazol-1-yl)benzyl)amino)-8-isopropylpyrazolo[1,5-a][1,3,5]triazin-2-yl)amino)-3-aminopropanoate] | > 2500 | > 2500 | > 25 |
| CC(C)c1cnn2c(NCc3ccccc3-n3cccn3)nc(CNCCCN3CCOCC3)nc12 [(XXX-2), N-(2-(1H-pyrazol-1-yl)benzyl)-8-isopropyl-2-(((3-morpholinopropyl)amino)methyl)pyrazolo[1,5-a][1,3,5]triazin-4-amine] | > 2500 | > 2500 | > 25 |
| CC(C)c1cnn2c(NCc3ccccc3-c3ccccn3)nc(O[C@@H]3CCCNC3)nc12 [(VII-34), (R)-8-isopropyl-2-(piperidin-3-yloxy)-N-(2-(pyridin-2-yl)benzyl)pyrazolo[1,5-a][1,3,5]triazin-4-amine] | 500 to 2500 | 50 to 500 | < 5 |
| CC(C)c1cnn2c(NCc3ccccc3-n3cccn3)nc(N3CCC4(CCCN4)CC3)nc12 [(VIII-11), N-(2-(1H-pyrazol-1-yl)benzyl)-8-isopropyl-2-(1,8-diazaspiro[4.5]decan-8-yl)pyrazolo[1,5-a][1,3,5]triazin-4-amine] | > 2500 | 500 to 2500 | < 5 |
| CC(C)c1cnn2c(NCc3ccccc3-n3cccn3)nc(N3CCC4(CCCN4)C3)nc12 (stereo not drawn) [(VIII-17), N-(2-(1H-pyrazol-1-yl)benzyl)-8-isopropyl-2-(1,7-diazaspiro[4.4]nonan-7-yl)pyrazolo[1,5-a][1,3,5]triazin-4-amine] | > 2500 | 500 to 2500 | < 5 |
| CC(C)COC(=O)Oc1ccccc1CNc1nc(O[C@@H]2CCCNC2)nc2c(C(C)C)cnn12 [(VII-149), (R)-isobutyl (2-(((8-isopropyl-2-(piperidin-3-yloxy)pyrazolo[1,5-a][1,3,5]triazin-4-yl)amino)methyl)phenyl) carbonate] | > 2500 | > 2500 | 10 to 25 |
| CC(C)c1cnn2c(NCc3ccccc3-n3cccn3)nc(OC3CCNCC3)nc12 [(VII-01), N-(2-(1H-pyrazol-1-yl)benzyl)-8-isopropyl-2-(piperidin-4-yloxy) pyrazolo[1,5-a][1,3,5]triazin-4-amine] | > 2500 | 50 to 500 | < 5 |
| CC(C)c1cnn2c(NCc3ccccc3-n3cccn3)nc(O[C@@H]3CCCNC3)nc12 [(VII-03), (R)-N-(2-(1H-pyrazol-1-yl)benzyl)-8-isopropyl-2-(piperidin-3-yloxy)pyrazolo[1,5-a][1,3,5]triazin-4-amine] | 50 to 500 | < 50 | < 5 |
| CCNC(=O)Oc1ccccc1CNc1nc(O[C@@H]2CCCNC2)nc2c(C(C)C)cnn12 [(VII-146), (R)-2-(((8-isopropyl-2-(piperidin-3-yloxy)pyrazolo[1,5-a][1,3,5]triazin-4-yl)amino)methyl)phenyl ethylcarbamate] | > 2500 | > 2500 | 10 to 25 |
| CC(C)c1cnn2c(NCc3ccccc3-n3cccn3)nc(N3CCCC4(CCNCC4)C3)nc12 [(VIII-21), N-(2-(1H-pyrazol-1-yl)benzyl)-8-isopropyl-2-(2,9-diazaspiro[5.5]undecan-2-yl)pyrazolo[1,5-a][1,3,5]triazin-4-amine] | > 2500 | 500 to 2500 | 5 to 10 |
| CC(C)c1cnn2c(NCc3ccccc3-c3cccs3)nc(O[C@@H]3CCCNC3)nc12 [(VII-12), (R)-8-isopropyl-2-(piperidin-3-yloxy)-N-(2-(thiophen-2-yl)benzyl)pyrazolo[1,5-a][1,3,5]triazin-4-amine] | 50 to 500 | < 50 | < 5 |
| CSc1ccccc1CNc1nc(O[C@@H]2CCCNC2)nc2c(C(C)C)cnn12 [(VII-118), (R)-8-isopropyl-N-(2-(methylthio)benzyl)-2-(piperidin-3-yloxy)pyrazolo[1,5-a][1,3,5]triazin-4-amine] | 50 to 500 | 50 to 500 | 5 to 10 |
| CC(C)Oc1ccccc1CNc1nc(O[C@@H]2CCNC2)nc2c(C(C)C)cnn12 [(VII-16), (R)-N-(2-isopropoxybenzyl)-8-isopropyl-2-(pyrrolidin-3-yloxy)pyrazolo[1,5-a][1,3,5]triazin-4-amine] | > 2500 | 500 to 2500 | < 5 |
| CC(C)c1cnn2c(NCc3ccccc3Br)nc(O[C@@H]3CCCNC3)nc12 [(VII-100), (R)-N-(2-bromobenzyl)-8-isopropyl-2-(piperidin-3-yloxy)pyrazolo[1,5-a][1,3,5]triazin-4-amine] | 50 to 500 | 50 to 500 | < 5 |
| CC(C)c1cnn2c(NCc3ccc(F)cc3-n3cccn3)nc(O[C@@H]3CCCNC3)nc12 [(VII-43), (R)-N-(4-fluoro-2-(1H-pyrazol-1-yl)benzyl)-8-isopropyl-2-(piperidin-3-yloxy)pyrazolo[1,5-a][1,3,5]triazin-4-amine] | 50 to 500 | < 50 | < 5 |
| CC(C)c1cnn2c(NCc3ccccc3-n3cccn3)nc(N(C)CCN3CCCC3)nc12 [(VIII-045), N4-(2-(1H-pyrazol-1-yl)benzyl)-8-isopropyl-N2-methyl-N2-(2-(pyrrolidin-1-yl)ethyl)pyrazolo[1,5-a][1,3,5]triazine-2,4-diamine] | > 2500 | > 2500 | 10 to 25 |
| CC(C)c1cnn2c(NCc3ccccc3-n3cccn3)nc(N3CCC(N)C3)nc12 (stereo not drawn) [(VIII-054), N-(2-(1H-pyrazol-1-yl)benzyl)-2-(3-aminopyrrolidin-1-yl)-8-isopropylpyrazolo[1,5-a][1,3,5]triazin-4-amine] | > 2500 | > 2500 | > 25 |
| CC(C)c1cnn2c(NCc3ccccc3-n3cccn3)nc(OC3CNCCOC3)nc12 (stereo not drawn) [(VII-122), 2-((1,4-oxazepan-6-yl)oxy)-N-(2-(1H-pyrazol-1-yl)benzyl)-8-isopropylpyrazolo[1,5-a][1,3,5]triazin-4-amine] | > 2500 | 500 to 2500 | 10 to 25 |
| CC(C)c1cnn2c(NCc3cccc4ccncc34)nc(O[C@@H]3CCCNC3)nc12 [(VII-31), (R)-8-isopropyl-N-(isoquinolin-8-ylmethyl)-2-(piperidin-3-yloxy)pyrazolo[1,5-a][1,3,5]triazin-4-amine] | < 50 | 50 to 500 | < 5 |
| CC(=O)Oc1ccccc1CNc1nc(O[C@@H]2CCCNC2)nc2c(C(C)C)cnn12 [(VII-145), (R)-2-(((8-isopropyl-2-(piperidin-3-yloxy)pyrazolo[1,5-a][1,3,5]triazin-4-yl)amino)methyl)phenyl acetate] | 500 to 2500 | 500 to 2500 | 10 to 25 |
| CC(C)c1cnn2c(NCc3cccc4nonc34)nc(N3CCC4(CCCN4)CC3)nc12 [(VIII-36), N-(benzo[c][1,2,5]oxadiazol-4-ylmethyl)-8-isopropyl-2-(1,8-diazaspiro[4.5]decan-8-yl)pyrazolo[1,5-a][1,3,5]triazin-4-amine] | 500 to 2500 | > 2500 | < 5 |
| Cc1nccn1-c1ccccc1CNc1nc([S+]([O-])C2CCNCC2)nc2c(C(C)C)cnn12 (stereo not drawn) [(X-5), 8-isopropyl-N-(2-(2-methyl-1H-imidazol-1-yl)benzyl)-2-(piperidin-4-ylsulfinyl)pyrazolo[1,5-a][1,3,5]triazin-4-amine] | > 2500 | 500 to 2500 | < 5 |
| CC(C)c1cnn2c(NCc3ccccc3C(F)(F)F)nc(OC3CCN(C)CC3)nc12 [(VII-58), 8-isopropyl-2-((1-methylpiperidin-4-yl)oxy)-N-(2-(trifluoromethyl)benzyl)pyrazolo[1,5-a][1,3,5]triazin-4-amine] | > 2500 | < 50 | 10 to 25 |
